Results published in patent publication US20250230165A1, “HETEROCYCLIC COMPOUNDS FOR USE IN THE TREATMENT OF CANCER” (ARTIOS PHARMA LIMITED, priority 2021, published 2025).

target: T1, Human Polθ polymerase domain (aa1820-2590) (Homo sapiens, UniProt O75417); assay: Polθ Polymerase Domain Kinact/KI Assay (PicoGreen); type: biochemical; details: 0.8 nM Polθ, 100 nM DNA substrate, kobs vs [I] fit for 2-step covalent inhibitor
T1 construct: Human Polθ polymerase domain (aa1820-2590) was expressed in E. coli; made in house; host or cells: E. coli
T1 sequence (O75417 1820-2590): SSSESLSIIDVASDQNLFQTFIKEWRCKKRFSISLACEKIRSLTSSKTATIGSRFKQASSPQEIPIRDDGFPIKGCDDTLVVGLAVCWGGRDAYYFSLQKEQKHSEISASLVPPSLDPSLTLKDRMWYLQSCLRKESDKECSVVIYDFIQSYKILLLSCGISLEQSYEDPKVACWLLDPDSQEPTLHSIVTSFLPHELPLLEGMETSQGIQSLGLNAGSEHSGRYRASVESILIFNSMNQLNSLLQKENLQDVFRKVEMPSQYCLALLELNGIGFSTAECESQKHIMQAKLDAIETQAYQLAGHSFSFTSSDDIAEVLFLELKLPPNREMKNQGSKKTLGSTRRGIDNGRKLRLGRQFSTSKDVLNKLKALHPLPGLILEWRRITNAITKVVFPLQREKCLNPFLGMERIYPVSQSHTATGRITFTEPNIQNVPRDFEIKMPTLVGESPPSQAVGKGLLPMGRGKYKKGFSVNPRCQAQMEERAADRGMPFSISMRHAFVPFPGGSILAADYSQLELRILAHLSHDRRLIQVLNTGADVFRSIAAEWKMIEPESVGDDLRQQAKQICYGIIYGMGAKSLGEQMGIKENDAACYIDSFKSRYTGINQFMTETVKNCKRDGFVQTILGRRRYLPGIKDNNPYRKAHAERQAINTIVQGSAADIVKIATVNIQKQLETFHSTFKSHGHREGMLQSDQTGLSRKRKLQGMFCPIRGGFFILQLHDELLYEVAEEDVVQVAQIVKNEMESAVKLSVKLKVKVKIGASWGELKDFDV
How it was run: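 Time-dependent inhibition was followed with 0.8 nM polymerase domain, 100 nM DNA substrate and […], reactions quenched over 60 min and quantified by PicoGreen. Kinact and KI came from a secondary plot of kobs against inhibitor concentration.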

Compound	Kinact/Kl
C=CC(=O)N1CC2(CN(CCN3C[C@H]4CC(=O)N(c5cc(C(F)(F)F)cc(C)n5)[C@@H]4C(=O)N(C)c4cccc(F)c43)C[C@H](C)N2)C1 [Example 32, (3aR,11aS)-5-(2-((S)-2-acryloyl-6-methyl-2,5,8-triazaspiro[3.5]nonan-8-yl)ethyl)-6-fluoro-10-methyl-1-(6-methyl-4-(trifluoromethyl)pyridin-2-yl)-1,3a,4,5,10,11a-hexahydro-2H-benzo[b] pyrrolo[2,3-f][1,4] diazocine-2,11(3H)-dione]	420000 M⁻¹ s⁻¹
C=CC(=O)N1CC2(CN(CCN3C[C@H]4CC(=O)N(c5cc(C(F)(F)F)cc(C)n5)[C@@H]4C(=O)N(C)c4cccc(Cl)c43)CCN2)C1 [Example 33, (3aR,11aS)-5-(2-(2-acryloyl-2,5,8-triazaspiro[3.5]nonan-8-yl)ethyl)-6-chloro-10-methyl-1-(6-methyl-4-(trifluoromethyl)pyridin-2-yl)-1,3a,4,5, 10,11a-hexahydro-2H-benzo[b]pyrrolo [2,3-f][1,4]diazocine-2,11(3H)-dione]	1.23e+06 M⁻¹ s⁻¹
C=CC(=O)N1CC(n2cnc(CN3C[C@H]4CC(=O)N(c5cc(C(F)(F)F)cc(C)n5)[C@@H]4C(=O)N(C)c4cccc(F)c43)c2)C1 [Example 38, (3aR,11aS)-5-((1-(1-acryloylazetidin-3-yl)-1H-imidazol-4-yl)methyl)-6-fluoro-10-methyl-1-(6-methyl-4-(trifluoromethyl)pyridin-2-yl)-1,3a,4,5,10,11a-hexahydro-2H-benzo[b]pyrrolo[2,3-f][1,4]diazocine-2,11(3H)-dione]	2.39e+06 M⁻¹ s⁻¹
C=CC(=O)N1CC(n2cnc(CN3C[C@H]4CC(=O)N(c5cc(C(F)(F)F)cc(C)n5)[C@@H]4C(=O)N(C)c4cc(F)ccc43)c2)C1 [Example 40, (3aR,11aS)-5-((1-(1-acryloylazetidin-3-yl)-1H-imidazol-4-yl)methyl)-8-fluoro-10-methyl-1-(6-methyl-4-(trifluoromethyl)pyridin-2-yl)-1,3a,4,5,10,11a-hexahydro-2H-benzo[b]pyrrolo[2,3-f][1,4]diaocine-2,11(3H)-dione]	850000 M⁻¹ s⁻¹
C=CC(=O)N1CC(n2cnc(CN3C[C@H]4CC(=O)N(c5cc(C(F)(F)F)cc(C)n5)[C@@H]4C(=O)N(C)c4cccc(Cl)c43)n2)C1 [Example 42, (3aR,11aS)-5-((1-(1-acryloylazetidin-3-yl)-1H-1,2,4-triazol-3-yl)methyl)-6-chloro-10-methyl-1-(6-methyl-4-(trifluoromethyl)pyridin-2-yl)-1,3a,4,5,10,11a-hexahydro-2H-benzo[b]pyrrolo[2,3-f][1,4]diazocine-2,11(3H)-dione]	790000 M⁻¹ s⁻¹
Cc1cc(C(F)(F)F)cc(N2C(=O)C[C@@H]3CN(CCCOC4CN(C(=O)/C=C/CN(C)C)C4)c4c(F)cccc4N(C)C(=O)[C@H]32)n1 [Example 43, (3aR,11aS)-5-(3-((1-((E)-4-(dimethylamino)but-2-enoyl)azetidin-3-yl)oxy)propyl)-6-fluoro-10-methyl-1-(6-methyl-4-(trifluoromethyl)pyridin-2-yl)-1,3a,4,5,10,11a-hexahydro-2H-benzo[b]pyrrolo[2,3-f][1,4]diazocine-2,11(3H)-dione]	1.9e+06 M⁻¹ s⁻¹
C=CC(=O)N1CCN2CCN(CCN3C[C@H]4CC(=O)N(c5cc(C(F)(F)F)cc(C)n5)[C@@H]4C(=O)N(C)c4cccc(F)c43)C(=O)[C@@H]2C1 [Example 45, (3aR,11aS)-5-(2-((S)-8-acryloyl-1-oxooctahydro-2H-pyrazino[1,2-a]pyrazin-2-yl)ethyl)-6-fluoro-10-methyl-1-(6-methyl-4-(trifluoromethyl)pyridin-2-yl)-1,3a,4,5,10,11a-hexahydro-2H-benzo[b]pyrrolo[2,3-f][1,4]diazocine-2,11(3H)-dione]	310000 M⁻¹ s⁻¹
C=CC(=O)N1CCN2CC(=O)N(CCN3C[C@H]4CC(=O)N(c5cc(C(F)(F)F)cc(C)n5)[C@@H]4C(=O)N(C)c4cccc(F)c43)C[C@@H]2C1 [Example 47, (3aR,11aS)-5-(2-((S)-8-acryloyl-3-oxooctahydro-2H-pyrazino[1,2-a]pyrazin-2-yl)ethyl)-6-fluoro-10-methyl-1-(6-methyl-4-(trifluoromethyl)pyridin-2-yl)-1,3a,4,5,10,11a-hexahydro-2H-benzo[b]pyrrolo[2,3-f][1,4]diazocine-2,11(3H)-dione]	140000 M⁻¹ s⁻¹

Continued, values first:

Kinact/Kl	Compound
870000 M⁻¹ s⁻¹	C=CC(=O)N1CC2(CN(CCN3C[C@H]4CC(=O)N(c5cc(C(F)(F)F)cc(C)n5)[C@@H]4C(=O)N(C)c4cccc(F)c43)CCN2CC)C1 [Example 35, (3aR,11aS)-5-(2-(2-acryloyl-5-ethyl-2,5,8-triazaspiro[3.5]nonan-8-yl)ethyl)-6-fluoro-10-methyl-1-(6-methyl-4-(trifluoromethyl)pyridin-2-yl)-1,3a,4,5,10,11a-hexahydro-2H-benzo[b]pyrrolo[2,3-f][1,4]diazocine-2,11(3H)-dione]
1.47e+06 M⁻¹ s⁻¹	C=CC(=O)N1CC2(CN(CCN3C[C@H]4CC(=O)N(c5cc(C(F)(F)F)cc(C)n5)[C@@H]4C(=O)N(C)c4cccc(F)c43)CCN2C(C)=O)C1 [Example 36, (3aR,11aS)-5-(2-(5-acetyl-2-acryloyl-2,5,8-triazaspiro[3.5]nonan-8-yl)ethyl)-6-fluoro-10-methyl-1-(6-methyl-4-(trifluoromethyl)pyridin-2-yl)-1,3a,4,5,10,11a-hexahydro-2H-benzo[b]pyrrolo[2,3-f][1,4]diazocine-2,11(3H)-dione]
1.48e+06 M⁻¹ s⁻¹	C=CC(=O)N1CC2(C1)N[C@H](C)CN(CCN1C[C@H]3CC(=O)N(c4cc(C(F)(F)F)cc(C)n4)[C@@H]3C(=O)N(C)c3cccc(F)c31)C2C (stereo partly drawn) [Example 37a, (3aR,11aS)-5-(2-((6R,9S/R)-2-acryloyl-6,9-dimethyl-2,5,8-triazaspiro[3.5]nonan-8-yl)ethyl)-6-fluoro-10-methyl-1-(6-methyl-4-(trifluoromethyl)pyridin-2-yl)-1,3a,4,5,10,11a-hexahydro-2H-benzo[b]pyrrolo[2,3-f][1,4]diazocine-2,11(3H)-dione]
3.42e+06 M⁻¹ s⁻¹	C=CC(=O)N1CC(n2cnc(CN3C[C@H]4CC(=O)N(c5cc(C(F)(F)F)cc(C)n5)[C@@H]4C(=O)N(C)c4cccc(Cl)c43)c2)C1 [Example 39, (3aR,11aS)-5-((1-(1-acryloylazetidin-3-yl)-1H-imidazol-4-yl)methyl)-6-chloro-10-methyl-1-(6-methyl-4-(trifluoromethyl)pyridin-2-yl)-1,3a,4,5,10,11a-hexahydro-2H-benzo[b]pyrrolo[2,3-f][1,4]diazocine-2,11(3H)-dione]
1.38e+06 M⁻¹ s⁻¹	C=CC(=O)N1CC(n2ccc(CN3C[C@H]4CC(=O)N(c5cc(C(F)(F)F)cc(C)n5)[C@@H]4C(=O)N(C)c4cc(F)ccc43)n2)C1 [Example 41, (3aR,11aS)-5-((1-(1-acryloylazetidin-3-yl)-1H-pyrazol-3-yl)methyl)-8-fluoro-10-methyl-1-(6-methyl-4-(trifluoromethyl)pyridin-2-yl)-1,3a,4,5,10,11a-hexahydro-2H-benzo[b]pyrrolo[2,3-f][1,4]diazocine-2,11(3H)-dione]
2.22e+06 M⁻¹ s⁻¹	Cc1cc(C(F)(F)F)cc(N2C(=O)C[C@@H]3CN(CCCOC4CN(C(=O)/C=C/CN(C)C)C4)c4c(Cl)cccc4N(C)C(=O)[C@H]32)n1 [Example 44, (3aR,11aS)-6-chloro-5-(3-((1-((E)-4-(dimethylamino)but-2-enoyl)azetidin-3-yl)oxy)propyl)-10-methyl-1-(6-methyl-4-(trifluoromethyl)pyridin-2-yl)-1,3a,4,5,10,11a-hexahydro-2H-benzo[b]pyrrolo[2,3-f][1,4]diazocine-2,11(3H)-dione]
480000 M⁻¹ s⁻¹	C=CC(=O)N1CCN2CCN(CCN3C[C@H]4CC(=O)N(c5cc(C(F)(F)F)cc(C)n5)[C@@H]4C(=O)N(C)c4cccc(F)c43)C(=O)[C@H]2C1 [Example 46, (3aR,11aS)-5-(2-((R)-8-acryloyl-1-oxooctahydro-2H-pyrazino[1,2-a]pyrazin-2-yl)ethyl)-6-fluoro-10-methyl-1-(6-methyl-4-(trifluoromethyl)pyridin-2-yl)-1,3a,4,5,10,11a-hexahydro-2H-benzo [b]pyrrolo[2,3-f][1,4] diazocine-2,11(3H)-dione]
110000 M⁻¹ s⁻¹	C=CC(=O)N1CCN2CC(=O)N(CCN3C[C@H]4CC(=O)N(c5cc(C(F)(F)F)cc(C)n5)[C@@H]4C(=O)N(C)c4cccc(F)c43)C[C@H]2C1 [Example 48, (3aR,11aS)-5-(2-((R)-8-acryloyl-3-oxooctahydro-2H-pyrazino[1,2-a]pyrazin-2-yl)ethyl)-6-fluoro-10-methyl-1-(6-methyl-4-(trifluoromethyl)pyridin-2-yl)-1,3a,4,5,10,11a-hexahydro-2H-benzo[b]pyrrolo[2,3-f][1,4]diazocine-2,11(3H)-dione]
